The values below come from patent publication US20070092942A1, “Ubiquitin specific enzymes of family herpesviridae” (priority 2005, published 2007).

Common to all, as to details: FIGS. 6-7
The target in assay [1] is T1, Cezanne (Homo sapiens, UniProt Q6GQQ9).
T1 sequence (Q6GQQ9 1-843): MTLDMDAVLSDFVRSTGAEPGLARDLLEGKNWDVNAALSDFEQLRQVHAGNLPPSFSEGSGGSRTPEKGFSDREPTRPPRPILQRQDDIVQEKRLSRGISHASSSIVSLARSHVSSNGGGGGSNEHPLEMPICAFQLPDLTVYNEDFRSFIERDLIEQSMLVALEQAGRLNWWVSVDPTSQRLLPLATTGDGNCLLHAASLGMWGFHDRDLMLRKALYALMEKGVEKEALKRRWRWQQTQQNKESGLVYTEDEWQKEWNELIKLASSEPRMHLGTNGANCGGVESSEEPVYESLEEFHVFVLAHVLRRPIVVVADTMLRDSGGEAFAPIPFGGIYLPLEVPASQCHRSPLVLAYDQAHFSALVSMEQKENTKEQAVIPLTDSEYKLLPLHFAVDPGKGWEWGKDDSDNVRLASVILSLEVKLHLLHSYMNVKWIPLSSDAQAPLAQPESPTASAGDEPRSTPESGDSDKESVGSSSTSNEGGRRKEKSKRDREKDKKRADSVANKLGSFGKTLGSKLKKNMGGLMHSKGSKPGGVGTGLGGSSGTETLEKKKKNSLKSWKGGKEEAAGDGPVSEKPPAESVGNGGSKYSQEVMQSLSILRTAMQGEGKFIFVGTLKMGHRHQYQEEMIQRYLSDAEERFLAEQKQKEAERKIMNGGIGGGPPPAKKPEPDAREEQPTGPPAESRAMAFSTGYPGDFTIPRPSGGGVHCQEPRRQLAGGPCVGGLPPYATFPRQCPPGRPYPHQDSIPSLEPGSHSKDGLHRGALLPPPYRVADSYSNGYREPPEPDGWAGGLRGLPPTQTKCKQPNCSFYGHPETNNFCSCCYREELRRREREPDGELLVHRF
Put plainly: Western blot inhibitor screen, HA tagged Ub-VME probe, other enzymes. Format: binding.

Assay [2] deals with T2, UCH-3 (Homo sapiens, UniProt P15374).
T2 sequence (P15374 1-230): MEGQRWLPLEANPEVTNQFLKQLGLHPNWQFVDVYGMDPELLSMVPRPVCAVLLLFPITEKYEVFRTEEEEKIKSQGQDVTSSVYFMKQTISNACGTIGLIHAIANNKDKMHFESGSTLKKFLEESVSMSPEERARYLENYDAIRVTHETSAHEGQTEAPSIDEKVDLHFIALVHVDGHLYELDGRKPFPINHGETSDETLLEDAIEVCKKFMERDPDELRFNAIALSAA
The assay is described as above. The format is binding.

In assay [3] the target is T3, UCH-1 (Homo sapiens, UniProt P09936).
T3 sequence (P09936 1-223): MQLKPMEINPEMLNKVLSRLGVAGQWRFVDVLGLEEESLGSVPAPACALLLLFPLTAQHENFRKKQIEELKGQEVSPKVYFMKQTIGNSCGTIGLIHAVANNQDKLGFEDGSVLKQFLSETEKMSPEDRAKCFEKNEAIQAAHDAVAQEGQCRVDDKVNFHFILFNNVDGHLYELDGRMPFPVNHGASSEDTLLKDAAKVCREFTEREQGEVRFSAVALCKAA
The assay is described as above. The format is binding.

Assay [4] deals with T4, CYLD (Homo sapiens, UniProt Q9NQC7).
T4 sequence (Q9NQC7 1-956): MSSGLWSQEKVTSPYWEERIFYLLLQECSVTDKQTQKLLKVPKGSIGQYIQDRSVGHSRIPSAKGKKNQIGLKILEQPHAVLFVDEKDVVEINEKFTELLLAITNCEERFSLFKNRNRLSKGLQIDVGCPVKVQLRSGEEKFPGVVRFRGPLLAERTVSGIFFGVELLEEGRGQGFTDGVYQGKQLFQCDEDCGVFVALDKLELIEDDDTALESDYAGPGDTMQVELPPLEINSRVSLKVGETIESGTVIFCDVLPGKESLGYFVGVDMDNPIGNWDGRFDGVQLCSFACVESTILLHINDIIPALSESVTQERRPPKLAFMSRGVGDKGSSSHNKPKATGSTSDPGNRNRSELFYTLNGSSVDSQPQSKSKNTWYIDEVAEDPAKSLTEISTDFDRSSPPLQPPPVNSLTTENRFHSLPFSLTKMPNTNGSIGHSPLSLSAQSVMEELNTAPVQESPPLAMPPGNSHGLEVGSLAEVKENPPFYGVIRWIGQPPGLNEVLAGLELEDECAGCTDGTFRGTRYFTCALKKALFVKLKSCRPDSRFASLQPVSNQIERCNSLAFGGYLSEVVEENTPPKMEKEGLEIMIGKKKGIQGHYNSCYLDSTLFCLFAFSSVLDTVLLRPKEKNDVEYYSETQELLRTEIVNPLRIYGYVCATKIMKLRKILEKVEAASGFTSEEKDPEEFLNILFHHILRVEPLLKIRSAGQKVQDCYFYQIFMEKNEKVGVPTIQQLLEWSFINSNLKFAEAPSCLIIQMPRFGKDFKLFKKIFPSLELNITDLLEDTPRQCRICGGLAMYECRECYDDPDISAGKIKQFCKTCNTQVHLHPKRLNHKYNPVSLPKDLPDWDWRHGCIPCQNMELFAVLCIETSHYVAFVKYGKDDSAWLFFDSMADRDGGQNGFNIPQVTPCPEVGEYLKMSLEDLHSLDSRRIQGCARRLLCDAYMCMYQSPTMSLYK
The description is as above. Format: binding.

For assay [5], the target named is USP7 (Homo sapiens, UniProt Q93009). The description is as above. The format is binding.
USP7, sequence (Q93009 whole entry, species assumed): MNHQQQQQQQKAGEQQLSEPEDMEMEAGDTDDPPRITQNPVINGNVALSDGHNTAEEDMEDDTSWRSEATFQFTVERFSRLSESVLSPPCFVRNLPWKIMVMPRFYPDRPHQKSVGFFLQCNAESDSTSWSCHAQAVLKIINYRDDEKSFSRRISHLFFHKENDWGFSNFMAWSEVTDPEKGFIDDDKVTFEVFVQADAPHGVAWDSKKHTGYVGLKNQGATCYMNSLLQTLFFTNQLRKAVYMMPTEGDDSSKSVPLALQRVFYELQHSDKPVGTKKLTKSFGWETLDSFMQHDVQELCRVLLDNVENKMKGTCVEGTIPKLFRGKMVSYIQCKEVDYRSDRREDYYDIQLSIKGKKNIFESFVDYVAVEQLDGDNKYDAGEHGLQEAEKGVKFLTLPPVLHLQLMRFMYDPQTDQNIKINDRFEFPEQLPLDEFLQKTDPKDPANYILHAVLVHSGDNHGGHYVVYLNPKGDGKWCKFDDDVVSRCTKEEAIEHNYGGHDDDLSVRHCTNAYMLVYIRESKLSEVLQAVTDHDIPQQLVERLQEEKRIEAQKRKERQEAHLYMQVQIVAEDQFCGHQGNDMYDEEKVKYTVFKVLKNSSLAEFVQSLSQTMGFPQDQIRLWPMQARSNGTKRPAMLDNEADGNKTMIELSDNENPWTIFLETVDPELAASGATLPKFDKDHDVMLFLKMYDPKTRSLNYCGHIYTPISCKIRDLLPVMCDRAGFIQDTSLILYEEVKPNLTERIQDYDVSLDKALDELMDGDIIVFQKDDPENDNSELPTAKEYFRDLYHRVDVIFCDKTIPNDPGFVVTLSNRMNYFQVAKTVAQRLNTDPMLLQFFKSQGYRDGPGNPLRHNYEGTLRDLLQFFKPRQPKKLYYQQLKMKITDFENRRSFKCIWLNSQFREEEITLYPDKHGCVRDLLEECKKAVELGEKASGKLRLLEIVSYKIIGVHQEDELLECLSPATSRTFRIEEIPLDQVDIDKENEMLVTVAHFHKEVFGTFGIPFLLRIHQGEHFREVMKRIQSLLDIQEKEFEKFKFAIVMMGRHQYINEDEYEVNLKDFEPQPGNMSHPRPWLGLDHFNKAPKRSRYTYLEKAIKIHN
Assay [6] has as its system UL36. Briefly: Western blot screen for inhibitors: anti-HA blot of UL36 bound to HA tagged Ub-VME probe. Format: binding, HSV-1. The source says: FIGS. 6-7 is a series photographs showing the results of a screen for inhibitors of the Herpes deubiquitinating enzyme. The photographs show the results of Western blot assays: anti-HA blots for detecting UL36 bound to the HA tagged Ub-VME probe.
Background: In western blotting, separated proteins are transferred to a membrane and probed.

The target of assay [7] is Ataxin-3 (Homo sapiens, UniProt P54252). Briefly: Western blot inhibitor screen, HA tagged Ub-VME probe, other enzymes. Format: binding.
Ataxin-3, sequence (P54252 whole entry, species assumed): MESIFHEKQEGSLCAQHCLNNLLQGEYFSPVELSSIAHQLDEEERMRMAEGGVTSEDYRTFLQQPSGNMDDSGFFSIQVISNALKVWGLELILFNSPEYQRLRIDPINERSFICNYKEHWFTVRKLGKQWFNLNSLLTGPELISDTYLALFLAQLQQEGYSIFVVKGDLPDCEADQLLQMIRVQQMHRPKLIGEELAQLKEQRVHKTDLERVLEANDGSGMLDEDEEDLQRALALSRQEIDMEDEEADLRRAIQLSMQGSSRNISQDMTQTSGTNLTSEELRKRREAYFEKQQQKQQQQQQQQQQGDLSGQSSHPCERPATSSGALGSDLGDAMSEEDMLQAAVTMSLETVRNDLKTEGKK

Peptide text beside a SMILES is read from it. * marks the point of attachment. Cbz = O=C(OCc1ccccc1)*; CH2F = FC*

As to `CC(C)[C@H](NC(=O)OCc1ccccc1)C(=O)N[C@@H](C)C(=O)N[C@@H](C)C(=O)CF` [Z-VA-L-A-fink] (Cbz-Val-Ala-Ala-CH2F), the “Inhibition of Cezanne” value in assay [1] is “did not inhibit”. Moreover, the “Inhibition of UCH-3” value in assay [2] is reported as “did not inhibit”. In addition, the “Inhibition of UCH-1” value in assay [3] is reported as “did not inhibit”. Moreover, in assay [4], the “Inhibition of CYLD” value was “did not inhibit”. Besides, the “Inhibition of USP7” value in assay [5] is reported as “did not inhibit”. In addition, in assay [6], the “Inhibition of UL36 (HA band of UL36 bound to HA tagged Ub-VME probe decreases or disappears)” value is listed as “specifically inhibited”. Besides, the “Inhibition of Ataxin-3” value in assay [7] is on record as “did not inhibit”.
